Laboratory results reported in patent EP4752152A1, “STEROID COMPOUND, AND PREPARATION METHOD THEREFOR AND USE THEREOF” (Cholesgen (Shanghai) Co.Ltd., priority 2023, dated 2025).
≈ marks a conversion by molar mass, not a printed value. Read-outs that look alike come from different tables or passages of the source.

Tests used:
[1] = system: SREBP pathway; assay: SREBP luciferase reporter gene system (SRE-luciferase assay); assay type: cell-based, human; conditions: Huh-7/SRE-luc cells, sterol-deficient medium, 0.01-10 µM
Method in brief: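 Huh-7 cells stably carrying LDLR promoter-luciferase plus GFP were treated 16 h in sterol-deficient medium (5% lipoprotein-deficient serum, 2 µM lovastatin, 10 µM mevalonic acid) at 0.01–10 µM. Luciferase/GFP ratio measured as pathway activity; inhibition versus DMSO fitted to a four-parameter model for IC50.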

[2] = Solubility in fasted-state simulated intestinal fluid (FaSSIF); assay type: physicochemical; conditions: FaSSIF pH 6.5, 300 µM sample solution, room temperature
Experimental: Compound powder was dissolved in DMSO to prepare a 10.0 mM stock solution for later use. 0.021 g NaOH, 0.198 g NaH2PO4, and 0.309 g NaCl were weighed and added to 50.0 mL of ultrapure water. After thorough mixing, the pH was adjusted to 6.5 using HCl or NaOH. Then, 0.112 g of FaSSIF powder was added. After complete dissolution, the solution was allowed to stand at room temperature for 2 hours for later use. A certain volume of the compound stock solution was added to a certain volume of FaSSIF to prepare a 300 µM sample solution, which was mixed at room temperature under 1000 rpm for 1 hour. After 1 hour, the sample was centrifuged, and a certain volume of supernatant was taken. The termination solution was added to precipitate the sample, which was then thoroughly mixed and centrifuged for 20 minutes. The supernatant was then taken again, diluted with dilution solution, and then analyzed by liquid chromatography-tandem mass spectrometry (LC-MS/MS). The concentration of the test compound in the samples was quantitatively determined using LC-MS/MS. Table 3: FaSSIF solubility results of compounds from some examples

[3] = system: Fatty Acid Synthase (FASN) gene; assay: Inhibition of FASN gene expression (qPCR) in Huh-7 cells; assay type: cell-based, human; conditions: Homo sapiens, Huh-7 cells, starvation medium, 16 hours, qPCR, class symbols, read-out: FASN IC50
Method in brief: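 Huh-7 cells switched to starvation DMEM (5% LPDS, 2 µM lovastatin, 10 µM mevalonate) and treated 16 h with compound, top 3000 nM, 3-fold dilutions, 5 concentrations. FASN mRNA by RT-qPCR; inhibition relative to DMSO, IC50 from four-parameter fit.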

[4] = FaSSIF, pH 6.5, fassif, kinetic from dmso stock

| Compound | IC50 ([1]; Homo sapiens, Huh-7, 16 h) [µM] | IC50 ([3]; Huh-7, 16 h) [nM] | also measured |
| --- | --- | --- | --- |
| COc1cc(OC)c([C@@H](O)CCC[C@@H](C)[C@H]2CC[C@H]3[C@H]4[C@H](CC[C@]23C)[C@@]2(C)CC[C@H](O)[C@H](O)[C@@H]2CC4(F)F)c(F)n1 (single isomer, unassigned) [Compound 236] | 0.079 | – | solubility at 1 h [2, 4]: 305 µM (≈ 178 µg/mL) |
| COc1cc(F)c([C@H](O)CCC[C@@H](C)[C@H]2CC[C@H]3[C@H]4[C@H](CC[C@]23C)[C@@]2(C)CC[C@H](O)[C@H](O)[C@@H]2CC4(F)F)c(F)n1 (single isomer, unassigned) [Compound 240] | 0.042 | – | solubility at 1 h [2, 4]: 146 µM (≈ 83.4 µg/mL) |
| C[C@H](CCCC(O)c1cccc2c1cnn2C)[C@H]1CC[C@H]2[C@H]3[C@H](CC[C@]12C)[C@@]1(C)CC[C@H](O)[C@H](O)[C@@H]1CC3(F)F (single isomer, unassigned) [Compound 249, (1R,3aS,3bS,5aR,6R,7S,9aR,9bS,11aR)-4,4-difluoro-1-[(2R,6S)-6-hydroxy-6-(1-methylindazol-4-yl)hexan-2-yl]-9a,11a-dimethylhexadecahydro-1H-cyclopenta[1,2-a]phenanthrene-6,7-diol or (1R,3aS,3bS,5aR,6R,7S,9aR,9bS,11aR)-4,4-difluoro-1-[(2R,6R)-6-hydroxy-6-(1-methylindazol-4-yl)hexan-2-yl]-9a,11a-dimethylhexadecahydro-1H-cyclopenta[1,2-a]phenanthrene-6,7-diol] | 0.058 | – | solubility at 1 h [2, 4]: 38.6 µM (≈ 21.6 µg/mL) |
| C[C@H](CCCC(O)c1cccc2c1cnn2C)[C@H]1CC[C@H]2[C@H]3[C@H](CC[C@]12C)[C@@]1(C)CC[C@H](O)[C@H](O)[C@@H]1CC3(F)F (single isomer, unassigned) [Compound 250, (1R,3aS,3bS,5aR,6R,7S,9aR,9bS,11aR)-4,4-difluoro-1-[(2R,6R)-6-hydroxy-6-(1-methylindazol-4-yl)hexan-2-yl]-9a,11a-dimethylhexadecahydro-1H-cyclopenta[1,2-a]phenanthrene-6,7-diol or (1R,3aS,3bS,5aR,6R,7S,9aR,9bS,11aR)-4,4-difluoro-1-[(2R,6S)-6-hydroxy-6-(1-methylindazol-4-yl)hexan-2-yl]-9a,11a-dimethylhexadecahydro-1H-cyclopenta[1,2-a]phenanthrene-6,7-diol] | – | – | IC50 ([1]; 16 hours): 0.066 µM; solubility at 1 h ([2]; 60 min): 32.95 µM (≈ 18.4 µg/mL) |
| COc1cc(F)ccc1C(O)CCC[C@@H](C)[C@H]1CC[C@H]2[C@H]3[C@H](CC[C@]12C)[C@@]1(C)CC[C@H](O)C(=O)[C@@H]1CC3(F)F (stereo partly drawn) [Compound 184, (1R,3aS,3bS,5aR,7S,9aR,9bS,11aR)-4,4-difluoro-1-[(2R)-6-(4-fluoro-2-methoxyphenyl)-6-hydroxyhexan-2-yl]-7-hydroxy-9a,11a-dimethylhexadecahydro-1H-cyclopenta[1,2-a]phenanthren-6-one] | 0.031 | < 200 | – |
| COc1nc(F)cc(F)c1C(O)CCC[C@@H](C)[C@H]1CC[C@H]2[C@H]3[C@H](CC[C@]12C)[C@@]1(C)CC[C@H](O)[C@H](O)[C@@H]1CC3(F)F (stereo partly drawn) [Compound 206, (1R,3aS,3bS,5aR,6R,7S,9aR,9bS,11aR)-1-[(2R)-6-(4,6-difluoro-2-methoxypyridin-3-yl)-6-hydroxyhexan-2-yl]-4,4-difluoro-9a,11a-dimethylhexadecahydro-1H-cyclopenta[1,2-a]phenanthrene-6,7-diol] | 0.145 | 200 to 500 | – |
| C[C@H](CCCC(O)c1nc2cccc(Br)c2n1C)[C@H]1CC[C@H]2[C@H]3[C@H](CC[C@]12C)[C@@]1(C)CC[C@H](O)[C@H](O)[C@@H]1CC3(F)F (stereo partly drawn) [Compound 212, (1R,3aS,3bS,5aR,6R,7 S,9aR,9bS,11aR)-1-[(2R)-6-(7-Bromo-1-methylbenzo[d]imidazol-2-yl)-6-hydroxyhexan-2-yl]-4,4-difluoro-9a,11a-dimethylhexadecahydro-1H-cyclopenta[1,2-a]phenanthrene-6,7-diol] | 0.08 | 200 to 500 | – |
| C[C@H](CCCC(O)c1cccc2ncn(C)c12)[C@H]1CC[C@H]2[C@H]3[C@H](CC[C@]12C)[C@@]1(C)CC[C@H](O)[C@H](O)[C@@H]1CC3(F)F (stereo partly drawn) [Compound 261, (1R,3aS,3bS,5aR,6R,7 S,9aR,9bS,11aR)-4,4-Difluoro-1-[(2R)-6-hydroxy-6-(3-methylbenzo[d]imidazol-4-yl)hexan-2-yl]-9a,11a-dimethylhexadecahyd ro-1H-cyclopenta[1,2-a]phenanthrene-6,7-diol] | 0.001 | < 200 | – |
| COc1nc(F)ccc1C(O)CCC[C@@H](C)[C@H]1CC[C@H]2[C@H]3[C@H](CC[C@]12C)[C@@]1(C)CC[C@H](O)C[C@@H]1CC3(F)F (stereo partly drawn) [Compound 301, (1R,3aS,3bR,5aR,7S,9aS,9bS,11aR)-4,4-difluoro-1-[(2R)-6-(6-fluoro-2-methoxypyridin-3-yl)-6-hydroxyhexan-2-yl]-9a,11a-dimethylhexadecahydro-1H-cyclopenta[1,2-a]phenanthren-7-ol] | 0.076 | 200 to 500 | – |
| COc1cccc(F)c1C(O)CCC[C@@H](C)[C@H]1CC[C@H]2[C@H]3[C@H](CC[C@]12C)[C@@]1(C)CC[C@H](O)C[C@@H]1CC3(F)F (stereo partly drawn) [Compound 302, (1R,3aS,3bR,5aR,7S,9aS,9bS,11aR)-4,4-difluoro-1-[(2R)-6-(2-fluoro-6-methoxyphenyl)-6-hydroxyhexan-2-yl]-9a,11a-dimethylhexadecahydro-1H-cyclopenta[1,2-a]phenanthren-7-ol] | 0.085 | < 200 | – |
| C[C@H](CCCC(O)c1nc2ccccc2[nH]1)[C@H]1CC[C@H]2[C@H]3[C@H](CC[C@]12C)[C@@]1(C)CC[C@H](O)[C@H](O)[C@@H]1CC3(F)F (stereo partly drawn) [Compound 303, (1R,3aS,3bS,5aR,6R,7 S,9aR,9bS,11aR)-4,4-Difluoro-1-[(2R)-6-hydroxy-6-(1H-benzo[d]imidazol-2-yl)hexan-2-yl]-9a,11a-dimethylhexadecahydro-1H-cyclopenta[1,2-a]phenanthrene-6,7-diol] | 0.109 | < 200 | – |
| C[C@H](CCC[C@@H](O)c1nc2ccccc2n1C)[C@H]1CC[C@H]2[C@H]3[C@H](CC[C@]12C)[C@@]1(C)CC[C@H](O)[C@H](O)[C@@H]1CC3(F)F [Compound 307, (1R,3aS,3bS,5aR,6R,7S,9aR,9bS,11aR)-4,4-difluoro-1-[(2R,6R)-6-hydroxy-6-(1-methylbenzo[d]imidazol-2-yl)hexan-2-yl]-9a,11a-dimethylhexadecahydro-1H-cyclopenta[1,2-a]phenanthrene-6,7-diol] | 0.054 | < 200 | – |
| C[C@H](CCCC(O)c1nc2cnccc2n1C)[C@H]1CC[C@H]2[C@H]3[C@H](CC[C@]12C)[C@@]1(C)CC[C@H](O)[C@H](O)[C@@H]1CC3(F)F (stereo partly drawn) [Compound 311, (1R,3aS,3bS,5aR,6R,7 S,9aR,9bS,11aR)-4,4-Difluoro-1-[(2R)-6-hydroxy-6-(1-methylimidazo[5,4-c]pyridin-2-yl)hexan-2-yl]-9a,11a-dimethylhexadecahydro-1H-cyclopenta[1,2-a]phenanthrene-6,7-diol] | 0.072 | < 200 | – |
| COc1nc(F)ccc1[C@H](O)CCC[C@@H](C)[C@H]1CC[C@H]2[C@H]3[C@H](CC[C@]12C)[C@@]1(C)CC[C@H](O)C[C@@H]1CC3(F)F [Compound 313, (1R,3aS,3bR,5aR,7S,9aS,9bS,11aR)-4,4-difluoro-1-[(2R,6R)-6-(6-fluoro-2-methoxypyridin-3-yl)-6-hydroxyhexan-2-yl]-9a,11a-dimethylhexadecahydro-1H-cyclopenta[1,2-a]phenanthren-7-ol] | 0.076 | 500 to 900 | – |
| C[C@H](CCCC(O)c1ccc(F)nc1OC1CC1)[C@H]1CC[C@H]2[C@H]3[C@H](CC[C@]12C)[C@@]1(C)CC[C@H](O)C[C@@H]1CC3(F)F (stereo partly shown) [Compound 335] | – | – | IC50 ([1]; Homo sapiens, 16 hours): 0.045 µM; IC50 [3]: < 200 nM |
| COc1cccc(F)c1[C@H](O)CC[C@@H](C)[C@H]1CC[C@H]2[C@H]3[C@H](CC[C@]12C)[C@@]1(C)CC[C@H](O)[C@H](O)[C@@H]1CC3(F)F [Compound 346, (1R,3aS,3bS,5aR,6R,7S,9aR,9bS,11aR)-4,4-difluoro-1-[(2R,5R)-5-(2-fluoro-6-methoxyphenyl)-5-hydroxypentan-2-yl]-9a,11a-dimethylhexadecahydro-1H-cyclopenta[1,2-a]phenanthrene-6,7-diol] | 0.056 | < 200 | – |
| C[C@H](CCCC(O)c1nnnn1C)[C@H]1CC[C@H]2[C@H]3[C@H](CC[C@]12C)[C@@]1(C)CC[C@H](O)C[C@@H]1CC3(F)F (stereo partly drawn) [Compound 373, (1R,3aS,3bR,5aR,7S,9aS,9bS,11aR)-4,4-difluoro-1-[(2R)-6-hydroxy-6-(1-methyl-1,2,3,4-tetrazol-5-yl)hexan-2-yl]-9a,11a-dimethylhexadecahydro-1H-cyclopenta[1,2-a]phenanthren-7-ol] | 0.078 | < 200 | – |
